Test results from US6814972B2, “Composition for prevention and/or treatment of vascular diseases, comprising propionyl L-carnitine and coenzyme Q10” (priority 2000, dated 2004).
“Also recorded” adds a separate entry of the source.

Legend:
[1] = test system: ischaemic area caused by occlusion of middle cerebral artery (MCA); test: Experimental cerebral ischaemia test (endothelin-1 occlusion of middle cerebral artery); format: in vivo, rat; conditions: for Extent of cerebral ischaemia due to occlusion of the MCA (% reduction in volume compared to controls): intravenous, five minutes after endothelin injection, carnitines 100 mg/kg, coenzyme Q10 50 mg/kg, evaluated three days later; for ability to reduce the extent of the ischaemia induced by occlusion of the MCA (in words): summary of Table 3
Description: With this test, the ischaemic area caused by occlusion of middle cerebral artery (MCA) was evaluated using the method described by Scharkey (Scharkey Y., Nature, 371:336, 1994), performed by injecting endothelin-1 (120 pmol in […]) in 5 minutes into anaesthetised rats with a microcannula placed stereotactically in the piriform cortex at the level of the middle cerebral artery. With this method, occlusion of the middle cerebral artery is induced and the resulting ischaemic area can be visualised three days later with transcardiac perfusion of a paraformaldehyde solution (4% in PBS). After extracting the cerebral mass, the latter was placed for twenty-four hours in a fixative containing 10% sucrose, and cryostat sections ([…]) fixed with resyl violet were examined under the optical microscope. The volume of the infarcted area was calculated according to the method described by Park (Park C. K., Ann. Neurol., 20:150, 1989).

[2] = test system: vascular thrombosis of the rat tail induced by K-carrageenin and endothelin-1; test: Experimental thrombotic vascular disease test (K-carrageenin + endothelin-1, rat tail); format: in vivo; conditions: for % inhibition of thrombosis after 2 h: 2 h after K-carrageenin; for % inhibition of thrombosis after 24 h: 24 h after K-carrageenin; for protective effect against the onset or severity of the vasculopathy lesions induced (in words): summary of Tables 1 and 2
Description: The method used in these tests was that described by Bekemeier (Bekemeier H., Agents and Actions, 16:446, 1985) modified by Bertelli (Bertelli A., Drugs Exptl. Clin. Res., 19:7, 1993) which consists in injecting K-carrageenin (0.5 mg/kg carrageenin, Sigma Chemical St. Louis Mo., USA) into the dorsal artery of the rat tail and, immediately prior to the K-carrageenin injection, 500 pmol/kg of endothelin-1 (Peninsula Laboratories, Belmont Calif., USA) by intravenous injection. With this method, as early as the second hour after injection of K-carrageenin, vascular thrombosis developed which could be estimated by measuring the length of the infarcted portion of the tail, the length of the entire tail and the ratio between the two (% infarcted tail).
The phenomenon was assessed two and twenty-four hours after injection of K-carrageenin. […]

[3] = test system: mice administered scopolamine; test: Learning test (water maze, scopolamine-treated mice); format: in vivo, mouse; conditions: for Latency period, administration (per os, 3 days): oral for three consecutive days, carnitines 300 mg/kg, coenzyme Q10 20 mg/kg; for Latency period, administration (per os, 3 days) / Latency period, administration (I.P.): scopolamine 3 mg/kg i.p.; for Latency period, administration (I.P.): single intraperitoneal dose one hour before test, carnitines 100 mg/kg, coenzyme Q10 50 mg/kg; for activity in the learning test (in words): summary of Table 5
Description: These tests were performed in mice using the water maze procedure as described by Morris (Morris R., J. Neurosci. Meth., 11:47, 1984) and modified by Lin (Lin Y., Acta Pharmacol. Sin., 19:413, 1998). The procedure consists in placing, in a maze situated in a tank containing water (80 cm×50 cm×20 cm) 10 cm deep, mice of both sexes weighing approximately 20 g each, which, after a suitable period of training in the task of finding their way back to the final platform and after selecting those that took less than 20 min to do so, were divided into various groups.
Both intraperitoneal and oral administration were carried out one hour prior to the start of the test. Half an hour before the start all the animals were administered scopolamine intraperitoneally at the dose of 3 mg/kg. As is known, scopolamine induces abnormalities of spatial orientation and prolongs latency time in finding the way to reach the platform.
After the test the latency time to reach the platform was calculated for each animal.

Sprague-Dawley male rats = test: Toxicology test, single oral administration of high doses; format: in vivo; conditions: propionyl L-carnitine 2 g/kg, coenzyme Q10 0.2 g/kg, or the same amounts in combination
From the text: Their use in combination also produces no damaging toxicological effects.

[4] = test system: papillary muscle of rabbit heart subjected to hypoxia; test: Myocardial anti-anoxic activity test (ATP in hypoxic papillary muscle); format: in vivo; conditions: for ATP concentrations, after hypoxia / ATP concentrations, before hypoxia: daily i.v. for three days (carnitines 100 mg/kg, combination 5 x 25 mg/kg, coenzyme Q10 50 mg/kg); for ATP concentrations, after hypoxia: after a 90 min anoxia period; for ATP concentrations, before hypoxia: papillary muscle under oxygen perfusion for 90 min; for preservation of ATP concentrations in papillary muscle (in words): summary of Table 4
From the text: This test was used to assess the ability of propionyl L-carnitine to protect the myocardium against the loss of ATP induced by anoxia and to preserve energy capacity even in these conditions.
An attempt was therefore made to establish whether prior treatment with propionyl L-carnitine, L-carnitine, carnitine combination or coenzyme Q10 alone or in combination with propionyl L-carnitine or with the other preparations was capable of preserving normal ATP concentrations in the hypoxic myocardium.
After three days of treatment, all the animals were sacrificed. Sections of papillary muscle measuring 1 mm in diameter and 4-5 mm in thickness were isolated. These samples of papillary muscle were perfused in a thermostatic bath with a saturated solution of 100% O2. The hypoxia was then produced by introducing 100% N2 in the bath in place of O2. The ATP concentrations in papillary muscle were measured using the method described by Strehler (Strehler B. L., Methods in Enzymology, 111, N.Y. Acad. Press, 879, 1957). The analysis was done on tissue samples maintained under oxygen perfusion for 90 min and after a 90 min anoxia period.

[5] = intravenous administration, carnitines 50 mg/kg (combination 5 x 10 mg/kg), coenzyme Q10 20 mg/kg
[6] = oral administration for four days prior to the test, carnitines 300 mg/kg (combination 5 x 75 mg/kg), coenzyme Q10 100 mg/kg

| SMILES | Extent of cerebral ischaemia due to occlusion of the MCA (% reduction in volume compared to controls) [1] [%] | ability to reduce the extent of the ischaemia induced by occlusion of the MCA (in words) [1] | % inhibition of thrombosis after 2 h [2, 5] [%] | % inhibition of thrombosis after 24 h [2, 5] [%] | % inhibition of thrombosis after 2 h [2, 6] [%] | % inhibition of thrombosis after 24 h [2, 6] [%] | protective effect against the onset or severity of the vasculopathy lesions induced (in words) [2] | Latency period, administration (per os, 3 days) [3] [s] | Latency period, administration (I.P.) [3] [s] | toxic effects or signs of intolerance (Sprague-Dawley male rats) | ATP concentrations, after hypoxia [4] [µmol/g tissue] | ATP concentrations, before hypoxia [4] [µmol/g tissue] | preservation of ATP concentrations in papillary muscle (in words) [4] | activity in the learning test (in words) [3] |
| --- | --- | --- | --- | --- | --- | --- | --- | --- | --- | --- | --- | --- | --- | --- |
| CCC(=O)O[C@H](CC(=O)[O-])C[N+](C)(C)C [Propionyl L-carnitine, propionyl L-carnitine] | 30.3 ± 3.6 | good ability to reduce the extent of the ischaemia | 16.25 ± 0.7 | 26.45 ± 1.9 | 14.5 ± 0.7 | 30.5 ± 3.3 | protective effect | 30 ± 16 | 32 ± 12 | failed to reveal any toxic effects or signs of intolerance | 0.64 ± 0.055 | 1.58 ± 0.64 | at least partially maintaining the ATP concentrations |  |
| C[N+](C)(C)C[C@H](O)CC(=O)[O-] [L-carnitine] | 10.5 ± 0.77 | no significant protective effect; also recorded: much less pronounced | 9.5 ± 0.4 | 11.5 ± 0.9 | 8.5 ± 0.5 | 9.2 ± 1.2 | ineffective | 39 ± 21 | 40 ± 20 |  | 0.5 ± 0.045 | 1.55 ± 0.8 | Much more limited | inactive |
| COC1=C(OC)C(=O)C(C/C=C(\C)CC/C=C(\C)CC/C=C(\C)CC/C=C(\C)CC/C=C(\C)CC/C=C(\C)CC/C=C(\C)CC/C=C(\C)CC/C=C(\C)CCC=C(C)C)=C(C)C1=O [Coenzyme Q10, coenzyme Q10] | 22.2 ± 2.9 |  | 11.7 ± 0.9 | 14.5 ± 1.3 | 13.8 ± 1.7 | 12.5 ± 1.7 | poorly effective | 31 ± 12 | 31 ± 18 |  | 0.64 ± 0.068 | 1.65 ± 0.7 | at least partially maintaining the ATP concentrations |  |
| CC(=O)O[C@H](CC(=O)[O-])C[N+](C)(C)C [Acetyl L-carnitine, acetyl L-carnitine] | 15.8 ± 1.4 | no significant protective effect | 8.8 ± 0.7 | 10.6 ± 0.8 | 9.2 ± 0.8 | 11.5 ± 1.5 | ineffective |  |  |  | 0.54 ± 0.075 | 1.58 ± 0.98 |  | only poor activity |
